Test results reported in paper PMC5983544, “Muscarinic M5 receptors modulate ethanol seeking in rats” (Neuropsychopharmacology, 2018).

Key:
[1] = test system: ethanol-preferring (iP) rats; experiment: Operant sucrose self-administration, oral dosing; assay type: in vivo, rat; conditions: 30 mg/kg p.o. x3
Source text: A separate cohort of rats were trained to self-administer sucrose (0.05–1% w/v). Rats underwent an identical dosing regimen of vehicle or ML375 before testing.

rat M1 mAChR = molecular target: T1, rat M1 mAChR (Rattus norvegicus, UniProt P08482); experiment: [3H]NMS equilibrium binding in whole CHO-rM1 cells; conditions: rM1, [3H]NMS binding
T1 construct: host or cells: FlpIn CHO cells (Invitrogen)
T1 sequence (P08482 1-460): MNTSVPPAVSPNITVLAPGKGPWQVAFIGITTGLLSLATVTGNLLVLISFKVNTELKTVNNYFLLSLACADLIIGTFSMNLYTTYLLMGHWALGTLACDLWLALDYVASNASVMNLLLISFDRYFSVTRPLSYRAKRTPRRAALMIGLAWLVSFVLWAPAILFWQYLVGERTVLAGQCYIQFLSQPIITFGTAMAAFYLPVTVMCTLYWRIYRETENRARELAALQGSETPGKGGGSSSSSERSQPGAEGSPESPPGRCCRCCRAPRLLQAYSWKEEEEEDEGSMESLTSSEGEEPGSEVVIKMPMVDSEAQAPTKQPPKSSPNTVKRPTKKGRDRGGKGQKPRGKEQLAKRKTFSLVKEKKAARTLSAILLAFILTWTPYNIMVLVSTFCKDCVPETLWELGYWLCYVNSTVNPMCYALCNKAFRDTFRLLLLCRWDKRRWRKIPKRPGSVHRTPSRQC
Experimental: (§1) Rat mAChR subtypes (rM1–rM5; Origene) and human cannabinoid 1 receptor (hCB1; ref. [24]) constructs were isogenically integrated into FlpIn CHO cells (Invitrogen) and cells were selected in the presence of […] hygromycin B at 37 °C, 5% CO2, as previously described for the human M1 mAChR [25]. All cells were sub-cultured and seeded as previously described for the CHO-hM5 cells.
(§2) [^3H]NMS equilibrium binding assays in CHO-rM1 to CHO-rM5 cells were performed as previously described for CHO-hM5 cells. For [^35S]GTPγS binding, CHO-rM2 and CHO-rM4 cell membranes were prepared as described in Supplementary information. Membrane [^35S]GTPγS binding was performed as described in ref [26]., except GDP and [^35S]GTPγS concentrations were 1 μM and 0.3 nM, respectively. [^3H](+)-pentazocine binding was performed as described in ref. [27].

rat M2 mAChR = molecular target: T2, rat M2 mAChR (Rattus norvegicus, UniProt P10980); experiment: ACh-stimulated [35S]GTPγS binding in CHO-rM2 cell membranes; assay type: biochemical; conditions: rM2, [35S]GTPγS binding
T2 construct: host or cells: FlpIn CHO cells (Invitrogen)
T2 sequence (P10980 1-466): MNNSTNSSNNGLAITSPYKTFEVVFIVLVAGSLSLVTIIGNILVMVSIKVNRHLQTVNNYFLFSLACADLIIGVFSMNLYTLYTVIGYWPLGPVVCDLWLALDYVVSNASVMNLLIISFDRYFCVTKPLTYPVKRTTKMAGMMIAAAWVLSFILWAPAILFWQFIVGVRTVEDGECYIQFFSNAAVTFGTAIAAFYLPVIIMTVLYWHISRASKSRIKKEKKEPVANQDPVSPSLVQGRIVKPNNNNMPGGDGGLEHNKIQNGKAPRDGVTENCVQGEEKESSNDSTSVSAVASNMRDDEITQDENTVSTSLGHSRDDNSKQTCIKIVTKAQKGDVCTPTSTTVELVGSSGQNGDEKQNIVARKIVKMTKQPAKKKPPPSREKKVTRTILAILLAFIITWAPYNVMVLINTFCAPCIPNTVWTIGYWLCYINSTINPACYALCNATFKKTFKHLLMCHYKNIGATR
Experimental: as §2

[2] = test system: ethanol-preferring (iP) rats; experiment: Ethanol self-administration after bilateral microinjection into dorsomedial (DM) striatum; assay type: in vivo, rat; conditions: intra-DM striatum, 105 pmol/hemisphere
Source text: Male iP rats (n = 14) were trained to self-administer 10% (v/v) ethanol via lever presses under FR3 operant conditions for approximately 12 weeks, in the presence of a 1-s light conditioned stimulus (CS+) occurring when the ethanol solution was delivered and an olfactory cue (S+ cue; one drop of vanilla essence, placed directly below the ethanol-paired (active) lever), as previously described, followed by surgery and testing. […] Rats were then given 7 days of ethanol self-administration before receiving the alternate treatment in a counterbalanced manner. For full details refer to Supplementary material.
Microinjections were performed as previously described; for full details see Supplementary material.
There was a main effect of lever (F(1, 15) = 59.4, P < 0.0001) but no effect of treatment (F(1, 15) = 0.22, P = 0.65) (Fig. 5b).

rat M4 mAChR = molecular target: T3, rat M4 mAChR (Rattus norvegicus, UniProt P08485); experiment: [3H]NMS equilibrium binding in whole CHO-rM4 cells; conditions: rM4, [3H]NMS binding
T3 construct: host or cells: FlpIn CHO cells (Invitrogen)
T3 sequence (P08485 1-478): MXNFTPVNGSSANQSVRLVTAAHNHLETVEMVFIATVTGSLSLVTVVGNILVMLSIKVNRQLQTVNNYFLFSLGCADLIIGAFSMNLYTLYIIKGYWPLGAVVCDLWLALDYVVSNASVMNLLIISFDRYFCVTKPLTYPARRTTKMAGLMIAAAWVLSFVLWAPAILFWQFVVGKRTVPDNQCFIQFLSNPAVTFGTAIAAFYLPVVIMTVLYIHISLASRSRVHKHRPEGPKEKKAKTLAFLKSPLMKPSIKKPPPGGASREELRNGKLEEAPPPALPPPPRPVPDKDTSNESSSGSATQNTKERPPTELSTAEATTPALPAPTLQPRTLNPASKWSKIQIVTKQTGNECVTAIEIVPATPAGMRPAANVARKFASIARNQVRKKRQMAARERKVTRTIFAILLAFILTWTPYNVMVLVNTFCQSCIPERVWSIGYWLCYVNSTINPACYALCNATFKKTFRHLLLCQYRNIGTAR
Experimental: as §1, §2

[3] = Rat pharmacokinetics (intraperitoneal or oral dosing); assay type: in vivo
Experimental: ML375 pharmacokinetics after either intraperitoneal or oral dosing of rats was determined as described in Supplementary information.

[4] = test system: ethanol-preferring (iP) rats; experiment: Locomotor activity; assay type: in vivo, rat; conditions: 60 min
Experimental: Rats (n = 6) were habituated to the locomotor room for at least 3 h.

σ1 receptor = molecular target: T4, σ1 receptor (Mus musculus, UniProt O55242); experiment: [3H](+)-pentazocine binding in mouse brain homogenates; conditions: ML375 at concentrations up to 10 μM
T4 construct: from tissue; host or cells: mouse brain homogenates
Experimental: as §2
Sigma-1 data are expressed as a percentage of specific [^3H]-(+)-pentazocine binding; ERK1/2 phosphorylation data are expressed percentage of the response to 10% FBS. Data represent the mean ± S.E.M. of 5-7 independent experiments performed in duplicate or triplicate.

[5] = single 30 mg/kg oral dose, plasma

T4 sequence (O55242 whole entry): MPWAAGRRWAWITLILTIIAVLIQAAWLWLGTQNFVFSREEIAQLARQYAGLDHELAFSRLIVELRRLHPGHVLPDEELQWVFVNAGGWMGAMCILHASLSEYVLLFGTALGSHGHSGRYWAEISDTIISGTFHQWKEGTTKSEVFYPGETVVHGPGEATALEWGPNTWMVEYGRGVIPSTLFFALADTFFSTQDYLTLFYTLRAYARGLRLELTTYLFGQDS

## O=C(c1ccc(F)c(F)c1)N1CCN2C(=O)c3ccccc3[C@@]12c1ccc(Cl)cc1 [ML375, (S)-9b-(4-chlorophenyl)-1-(3,4-difluorobenzoyl)-2,3-dihydro-1H-imidazo[2,1-a]isoi ndol-5(9bH)-one]
[1]; sucrose 0.05–1% w/v, P = 0.96
  sucrose responding vs vehicle: did not alter sucrose responding
[1]; sucrose-trained rats, P = 1.0
  water responding vs vehicle: no difference
Rat M1 mAChR
  effect on ACh affinity: no significant effects
Rat M2 mAChR
  effect on ACh potency: no significant effects
[2]
  ethanol responding vs vehicle: did not affect ethanol responding
Rat M4 mAChR
  effect on ACh affinity: no significant effects
[3]; 20 mg/kg i.p., 24 h profile
  clearance: low clearance
  terminal half-life: long terminal half-life
[3]; brain and plasma, ip, 20 mg/kg i.p., 24 h timepoint, read-out: brain-to-plasma ratio
  Kp at 24 h: 3 ± 0.7
[3]; [5]
  Cmax: 4.7 ± 0.7 µM
  Tmax: 7 h
[4]; 30 mg/kg p.o., P = 0.53
  locomotor activity vs vehicle: no difference
[4]; 56.6 mg/kg p.o., P = 0.016
  locomotor activity vs vehicle: did reduce locomotor activity
σ1 receptor
  effect on [3H](+)-pentazocine binding: no apparent effect
